Data taken from US5118599A, “Yellow couplers for photographic elements and processes” (Eastman Kodak Company, priority 1991, dated 1992).

Key:
pKa Measurements = assay type: physicochemical; details: Table 1
Excerpt: The structural preference of the coupler for the axial conformation has important implications for […]. Due largely to the ability of the carbonyl oxygen to enolize and form H-bonds with the oxygen atoms of the dioxane ring, the pKa of the coupler is generally 1-2 units lower than pivaloyl acetanilide-based couplers. A lower pKa value means that the coupler ionizes more readily at pH 10, and results in higher coupling activity with oxidized color developer, as shown in Table 1.

[1] = Photographic single layer element: Dmax, Dmin, gamma and λmax after color development
Procedure: Single layer photographic elements were prepared by coating a cellulose acetate-butyrate film support with a photosensitive layer containing a silver bromide emulsion at 70.2 and 140.4 mg/ft^2 for 2 and 4 equivalent couplers, respectively, gelatin at 350 mg/ft^2 and an image coupler (0.20 mmol/ft^2) dispersed in half its weight of dibutyl phthalate. The photosensitive layer was overcoated with a layer containing gelatin at 250 mg/ft^2 and bis vinylsulfonyl methyl ether hardener at 2.0 weight percent based on total gel.
Samples of each element were exposed imagewise through a stepped density test object and processed at 100° F. employing the following color developing solution, then stopped with a low pH bath, bleached, fixed, washed and dried to produce stepped colored images.
Color Developer Solution (2')
4-Amino-3-methyl-N-ethyl 3.55 g
Water to make 1 liter, pH 10.0
Densitometry in the appropriate color maximum density (Dmin and Dmax) and gamma defined as the maximum slope between any two adjacent density points.

[2] = Table 4, color developer pH 10.0

| Structure (SMILES) | pKa (pKa Measurements) | λmax ([1]; Table 3, D99, pH 10.0, KS-2) | λmax [1, 2] |
| --- | --- | --- | --- |
| CCC(C)(C)c1ccc(OCCCC(=O)Nc2ccc(Cl)c(NC(=O)CC(=O)C3(C)COC(C)(C)OC3)c2)c(C(C)(C)CC)c1 [Coupler D-0] | 8.51 |  |  |
| CCCCCCCCCCCCCCCCS(=O)(=O)Nc1ccc(OC)c(NC(=O)CC(=O)C2(C)COC(C)(C)OC2)c1 [Coupler D-2] |  | 446 |  |
| CCC(C)(C)c1ccc(OCCCC(=O)Nc2ccc(OC)c(NC(=O)CC(=O)C3(C)COCOC3)c2)c(C(C)(C)CC)c1 [Coupler D-3] |  |  | 446 nm |
| CCCCCCCCCCCCCCCCS(=O)(=O)Nc1ccc(Cl)c(NC(=O)CC(=O)C2(C)COCOC2)c1 [Coupler D-4] | 8.42 | 454 | 454 nm |
| CCC(C)(C)c1ccc(OCCCC(=O)Nc2ccc(Cl)c(NC(=O)CC(=O)C3(C)COCOC3)c2)c(C(C)(C)CC)c1 [Coupler D-5] |  | 452 | 452 nm |
| CCC(C)(C)c1ccc(OCCCC(=O)Nc2ccc(OC)c(NC(=O)C(Oc3ccc(S(=O)(=O)c4ccc(O)cc4)cc3)C(=O)C3(C)COC(C)(C)OC3)c2)c(C(C)(C)CC)c1 [Coupler D-7] |  |  | 445 nm |
| CCOC1C(=O)N(C(C(=O)Nc2cc(NC(=O)CCCOc3ccc(C(C)(C)CC)cc3C(C)(C)CC)ccc2OC)C(=O)C2(C)COC(C)(C)OC2)C(=O)N1Cc1ccccc1 [Coupler D-8] |  |  | 445 nm |
| CCC(C)(C)c1ccc(OCCCC(=O)Nc2ccc(Cl)c(NC(=O)C(Oc3ccc(S(=O)(=O)c4ccc(O)cc4)cc3)C(=O)C3(C)COCOC3)c2)c(C(C)(C)CC)c1 [Coupler D-10] | 7.55 |  | 453 nm |
| CCC(C)(C)c1ccc(OCCCC(=O)Nc2ccc(Cl)c(NC(=O)C(Oc3ccc(S(=O)(=O)c4ccc(OCc5ccccc5)cc4)cc3)C(=O)C3(C)COCOC3)c2)c(C(C)(C)CC)c1 [Coupler D-11] | 7.24 |  |  |
| CCC(C)(C)c1ccc(OCCCC(=O)Nc2cccc(NC(=O)C(Oc3ccc(S(=O)(=O)c4ccc(O)cc4)cc3)C(=O)C3(C)COCOC3)c2)c(C(C)(C)CC)c1 [Coupler D-12] |  |  | 454 nm |
| CCC(C)(C)c1ccc(OCCCC(=O)Nc2ccc(C)c(NC(=O)C(Oc3ccc(S(=O)(=O)c4ccc(O)cc4)cc3)C(=O)C3(C)COCOC3)c2)c(C(C)(C)CC)c1 [Coupler D-13] |  |  | 452 nm |
| CCC(C)(C)c1ccc(OCCCC(=O)Nc2ccc(OC)c(NC(=O)C(Oc3ccc(S(=O)(=O)c4ccc(O)cc4)cc3)C(=O)C3(C)COCOC3)c2)c(C(C)(C)CC)c1 [Coupler D-14] |  |  | 448 nm |
| CCCCCCCCCCCCCCCCS(=O)(=O)Nc1ccc(Cl)c(NC(=O)C(Oc2ccc(S(=O)(=O)c3ccc(OCc4ccccc4)cc3)cc2)C(=O)C(C)(C)C)c1 (stereo not drawn) [P-I, reference compound] |  |  | 452 nm |
| CCC(C)(C)c1ccc(OCCCC(=O)Nc2ccc(Cl)c(NC(=O)C(Oc3ccc(S(=O)(=O)c4ccc(OCc5ccccc5)cc4)cc3)C(=O)C(C)(C)C)c2)c(C(C)(C)CC)c1 (stereo not drawn) [P-III, reference compound] | 8.76 |  | 450 nm |
| CCCCCCCCCCCCCCCCS(=O)(=O)Nc1ccc(Cl)c(NC(=O)CC(=O)C(C)(C)C)c1 [P-V, reference compound] |  | 449 | 449 nm |
| CCC(C)(C)c1ccc(OCCCC(=O)Nc2ccc(Cl)c(NC(=O)CC(=O)C(C)(C)C)c2)c(C(C)(C)CC)c1 [P-VI, reference compound] | 10.01 | 447 | 447 nm |
